Assay results from doi:10.1101/2023.07.01.547314v1 (biorxiv, 2023).
Residue numbers refer to the chain shown, from its start.

Columns and labels:
[1] = molecular target: A2AR (Homo sapiens, UniProt P29274); assay: cell-based
[2] = molecular target: T1, A2BR (Homo sapiens, UniProt P29275, N273Y); assay: GloSensor cAMP assay, HEK293; assay type: cell-based
T1 sequence (P29275 1-332 N273Y): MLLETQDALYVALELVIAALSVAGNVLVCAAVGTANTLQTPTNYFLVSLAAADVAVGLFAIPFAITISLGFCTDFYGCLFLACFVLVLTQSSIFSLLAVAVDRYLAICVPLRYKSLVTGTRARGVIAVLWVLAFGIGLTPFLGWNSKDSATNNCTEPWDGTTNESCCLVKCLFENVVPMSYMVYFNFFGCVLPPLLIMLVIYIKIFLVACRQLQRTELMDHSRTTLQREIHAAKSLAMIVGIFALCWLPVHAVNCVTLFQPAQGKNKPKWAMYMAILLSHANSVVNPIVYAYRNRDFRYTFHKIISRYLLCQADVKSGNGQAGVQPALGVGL

[3] = molecular target: A2AR (Homo sapiens, UniProt P29274, Y271N); assay: cell-based
[4] = molecular target: T2, A2BR (Homo sapiens, UniProt P29275); assay: GloSensor cAMP assay, HEK293; assay type: cell-based
T2 sequence (P29275 1-332): T1 sequence (P29275 1-332 N273Y) with Y273N

[5] = molecular target: T3, A2BR (Homo sapiens, UniProt P29275, Y10F); assay: GloSensor cAMP assay, HEK293; assay type: cell-based
T3 sequence (P29275 1-332 Y10F): T1 sequence (P29275 1-332 N273Y) with Y10F, Y273N

[6] = molecular target: A2AR (Homo sapiens, UniProt P29274, Y9F); assay: cell-based
Chain of A2AR (Homo sapiens, UniProt P29274, Y9F) (P29274 whole entry Y9F): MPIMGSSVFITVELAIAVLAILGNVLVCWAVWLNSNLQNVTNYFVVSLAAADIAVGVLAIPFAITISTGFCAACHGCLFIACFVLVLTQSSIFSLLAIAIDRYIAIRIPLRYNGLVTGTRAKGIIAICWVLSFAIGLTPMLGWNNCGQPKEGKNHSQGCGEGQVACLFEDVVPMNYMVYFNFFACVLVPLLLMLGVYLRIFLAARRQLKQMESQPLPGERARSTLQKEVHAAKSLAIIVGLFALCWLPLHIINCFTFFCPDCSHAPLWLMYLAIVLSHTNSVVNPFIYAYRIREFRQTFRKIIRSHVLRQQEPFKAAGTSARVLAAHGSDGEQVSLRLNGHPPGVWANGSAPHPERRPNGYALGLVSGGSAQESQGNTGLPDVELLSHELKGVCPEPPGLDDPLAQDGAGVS

Chain of A2AR (Homo sapiens, UniProt P29274, Y271N) (P29274 whole entry Y271N): as the sequence (P29274 whole entry Y9F) above, with F9Y, Y271N counted along it
Chain of A2AR (Homo sapiens, UniProt P29274) (P29274 whole entry): as the sequence (P29274 whole entry Y9F) above, with F9Y counted along it

IC50 [1] [nM]	IC50 [2] [nM]	IC50 [3] [nM]	IC50 [4] [nM]	IC50 [5] [nM]	IC50 [6] [nM]	SMILES
3.21	7.46	65.6	8.18	1.29	1.78	Cc1c(C#N)cccc1-c1cc(-c2cn(Cc3cccc(C(C)(C)O)n3)nn2)nc(N)n1 [AB928, 3-[2-amino-6-[1-[[6-(2-hydroxypropan-2-yl)pyridin-2-yl]methyl]triazol-4-yl]pyrimidin-4-yl]-2-methylbenzonitrile]
	1210		2630	441		Cc1c(C#N)cccc1-c1cc(-c2ccn(Cc3cccc(C(C)(C)O)n3)c(=O)c2)nc(N)n1 [2-118, 3-[2-amino-6-[1-[[6-(2-hydroxypropan-2-yl)pyridin-2-yl]methyl]-2-oxo-1,2-dihydropyridin-4-yl]pyrimidin-4-yl]-2-methylbenzonitrile]
